Where a name gives a salt, the structure may show the parent alone.
Tested on: influx of neutrophils to the lung in LPS-challenged rats
Experiment: Rat LPS neutrophilia model
Type: in vivo
Details: intratracheal, LPS aerosol 100 ug/ml 15 min, lavage 4 hours later, in at least one of the range of conditions tested, significant p<0.05, nonsignificant p>0.05
In short: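 Compound was given intratracheally (200 ul, suspension or dry powder) 15 min–24 hours before a 15 min aerosol of LPS (100 ug/ml). Bronchoalveolar lavage was taken 4 hours after challenge for differential cell counts. Values are % inhibition of neutrophils versus no-compound controls at a given concentration and pretreat time.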

Row | Structure (SMILES) | inhibition of neutrophilia (neutrophil levels in lung lavage relative to no compound controls)
1 | Cc1ccc(NC(=O)c2ccsc2)cc1-c1nc(NC2CC(C)(C)NC(C)(C)C2)nc2c1ccc(=O)n2-c1c(F)cccc1F [31(e), N-(3-{8-(2,6-difluorophenyl)-7-oxo-2-[(2,2,6,6-tetramethyl-4-piperidinyl)amino]-7,8-dihydropyrido[2,3-d]pyrimidin-4-yl}-4-methylphenyl)-3-thiophenecarboxamide] | statistically significant inhibition
2 | CCCNC(=O)c1ccc(C)c(-c2nc(NCCNC)nc3c2ccc(=O)n3-c2c(F)cccc2F)c1 [56(d), 3-(8-(2,6-difluorophenyl)-2-{[2-(methylamino)ethyl]amino}-7-oxo-7,8-dihydropyrido[2,3-d]pyrimidin-4-yl)-4-methyl-N-propylbenzamide] | statistically significant inhibition

Target: T1, Recombinant human p38α (MKK6-activated) (Homo sapiens, UniProt Q16539)
T1 construct: His; made in house
Experiment: Time-resolved fluorescence resonance energy transfer (TR-FRET) kinase assay (standard or low volume)
Type: biochemical
Parameters: key: Compounds are considered active in this assay if they demonstrate a pIC50 of greater than 4.6 up to about a pIC50 of greater than 10.0
Details: MKK6-activated p38α 100 pM, GST-ATF2 400 nM, 120 minutes at room temperature; either assay format
Description: It is noted that there are two assay formats shown above for the Fluorescence anisotropy kinase binding assay. The only difference between these two assays is the volume used and the plate type. […] The results described herein may have been performed in either assay format and are not differentiated as to which. […] TR-FRET Assay Time-Resolved Fluorescence Resonance Energy Transfer Kinase Standard Assay Recombinant human p38α was expressed as a His-tagged protein. To activate this protein, 3 μM unactivated p38α was incubated in 200 mM Hepes pH 7.4, 625 mM NaCl, 1 mM DTT with 27 nM active MKK6 (Upstate), 1 mM ATP and 10 mM MgCl2 The activity of the MKK6-activated p38α was assessed using a time-resolved fluorescence resonance energy transfer (TR-FRET) assay. Biotinylated-GST-ATF2 (residues 19-96, 400 nM final), ATP ([…]) and MgCl2 (5 mM final) in assay buffer (40 mM HEPES pH 7.4, 1 mM DTT) were added to wells containing 1 ul of various concentrations of compound or DMSO vehicle (3% final) in NUNC 384 well black plate. The reaction was initiated by the addition of MKK6-activated p38 (100 pM final) to give a total volume of 30 ul. The reaction was incubated for 120 minutes at room temperature, then terminated by the addition of 15 μl of 100 mM EDTA pH 7.4. Detection reagent (15 μl) in buffer (100 mM HEPES pH 7.4, 150 mM NaCl, 0.1% w/v BSA, 1 mM DTT) containing antiphosphothreonine-ATF2-71 polyclonal antibody (Cell Signalling Technology, Beverly Mass., USA) labelled with W-1024 europium chelate (Wallac OY, Turku, Finland), and APC-labelled streptavidin (Prozyme, San Leandro, Calif., USA) was added and the reaction was further incubated for 60 minutes at room temperature. The degree of phosphorylation of GST-ATF2 was measured using a Packard Discovery plate reader (Perkin-Elmer Life Sciences, Pangbourne, UK) as a ratio of specific 665 nm energy transfer signal to reference europium 620 nm signal. Time-Resolved Fluorescence Resonance Energy Transfer Kinase Low Volume Assay Recombinant human p38α was expressed as a His-tagged protein. To activate this protein, 3 μM unactivated p38α was incubated in 200 mM Hepes pH7.4, 625 mM NaCl, 1 mM DTT with 27 nM active MKK6 (Upstate), 1 mM ATP and 10 mM MgCl2 The activity of the MKK6-activated p38α was assessed using a time-resolved fluorescence resonance energy transfer (TR-FRET) assay. Biotinylated-GST-ATF2 (residues 19-96, 400 nM final), ATP (125 μM final) and MgCl2 ([…]) in assay buffer (40 mM HEPES pH 7.4, 1 mM DTT) were added to wells containing 0.1 μl of various concentrations of compound or DMSO vehicle (1.7% final) in Greiner low volume 384 well black plate. The reaction was initiated by the addition of MKK6-activated p38α (100 pM final) to give a total volume of 6 μl. The reaction was incubated for 120 minutes at room temperature, then terminated by the addition of 3 μl of detection reagent in buffer (100 mM HEPES pH 7.4, 150 mM NaCl, 0.1% w/v BSA, 1 mM DTT, 100 mM EDTA) containing antiphosphothreonine-ATF2-71 polyclonal antibody (Cell Signalling Technology, Beverly Mass., USA) labelled with W-1024 europium chelate (Wallac OY, Turku, Finland), and APC-labelled streptavidin (Prozyme, San Leandro, Calif., USA). The reaction was further incubated for 60 minutes at room temperature. The degree of phosphorylation of GST-ATF2 was measured using a BMG Rubystar plate reader (BMG, UK) as a ratio of specific 665 nm energy transfer signal to reference europium 620 nm signal. It is noted that there are two assay formats shown above for the Time-resolved fluorescence resonance energy transfer kinase assay. The only difference between these two assays is the volume used and the plate type. […] The results described herein may have been performed in either assay format and are not differentiated as to which. […] For purposes herein the HTRF assay and the Fluorescence anisotropy kinase binding assay: […]

T1 sequence (Q16539 whole entry): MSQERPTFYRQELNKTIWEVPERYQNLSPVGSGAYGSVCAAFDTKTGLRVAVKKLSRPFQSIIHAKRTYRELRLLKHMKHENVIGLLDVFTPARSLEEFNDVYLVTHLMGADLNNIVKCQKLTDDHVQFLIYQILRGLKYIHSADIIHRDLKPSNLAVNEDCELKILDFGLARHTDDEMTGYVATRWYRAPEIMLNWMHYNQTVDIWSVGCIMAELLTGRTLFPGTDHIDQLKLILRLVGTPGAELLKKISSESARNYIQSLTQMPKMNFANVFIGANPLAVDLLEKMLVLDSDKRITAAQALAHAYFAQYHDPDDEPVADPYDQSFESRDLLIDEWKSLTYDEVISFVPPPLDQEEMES

Row | Structure (SMILES) | pIC50, reported as active
3 | Cc1ccc(NC(=O)c2ccsc2)cc1-c1nc(NC2CC(C)(C)NC(C)(C)C2)nc2c1ccc(=O)n2-c1c(F)cccc1F [31(e), N-(3-{8-(2,6-difluorophenyl)-7-oxo-2-[(2,2,6,6-tetramethyl-4-piperidinyl)amino]-7,8-dihydropyrido[2,3-d]pyrimidin-4-yl}-4-methylphenyl)-3-thiophenecarboxamide] | active
4 | CCCNC(=O)c1ccc(C)c(-c2nc(NCCNC)nc3c2ccc(=O)n3-c2c(F)cccc2F)c1 [56(d), 3-(8-(2,6-difluorophenyl)-2-{[2-(methylamino)ethyl]amino}-7-oxo-7,8-dihydropyrido[2,3-d]pyrimidin-4-yl)-4-methyl-N-propylbenzamide] | active
5 | CNC1CCN(c2nc(-c3cc(C(=O)Nc4ccc(F)cc4)ccc3C)c3ccc(=O)n(-c4c(F)cccc4F)c3n2)CC1 [114(b), 3-{8-(2,6-difluorophenyl)-2-[4-(methylamino)-1-piperidinyl]-7-oxo-7,8-dihydropyrido[2,3-d]pyrimidin-4-yl}-N-(4-fluorophenyl)-4-methylbenzamide] | active
6 | CCN(CC)CCCNc1nc(-c2cc(C(=O)O)ccc2C)c2ccc(=O)n(-c3c(F)cccc3F)c2n1 [118(a), 3-[2-{[3-(diethylamino)propyl]amino}-8-(2,6-difluorophenyl)-7-oxo-7,8-dihydropyrido[2,3-d]-pyrimidin-4-yl]-4-methylbenzoic acid] | active
7 | CCN(CC)CCCNc1nc(-c2cc(C(=O)NC(C)C)ccc2C)c2ccc(=O)n(-c3c(F)cccc3F)c2n1 [118(b), 3-[2-{[3-(diethylamino)propyl]amino}-8-(2,6-difluorophenyl)-7-oxo-7,8-dihydropyrido[2,3-d]pyrimidin-4-yl]-4-methyl-N-(1-methylethyl)benzamide] | active
8 | CCN(CC)CCCNc1nc(-c2cccc(C(=O)Nc3nccs3)c2C)c2ccc(=O)n(-c3c(F)cccc3F)c2n1 [150(d), 3-[2-{[3-(diethylamino)propyl]amino}-8-(2,6-difluorophenyl)-7-oxo-7,8-dihydropyrido[2,3-d]pyrimidin-4-yl]-2-methyl-N-1,3-thiazol-2-ylbenzamide] | active
9 | Cc1ccc(C(=O)O)cc1-c1nc(N2CCC(N3CCC(C)CC3)CC2)nc2c1ccc(=O)n2-c1c(F)cccc1F [163(b), 3-[8-(2,6-difluorophenyl)-2-(4-methyl-1,4′-bipiperidin-1′-yl)-7-oxo-7,8-dihydropyrido[2,3-d]pyrimidin-4-yl]-4-methylbenzoic acid] | active
10 | CCN(CC)CCCNc1nc(-c2cc(C(=O)O)cc(F)c2C)c2ccc(=O)n(-c3c(F)cccc3F)c2n1 [179(b), 3-[2-{[3-(diethylamino)propyl]amino}-8-(2,6-difluorophenyl)-7-oxo-7,8-dihydropyrido[2,3-d]pyrimidin-4-yl]-5-fluoro-4-methylbenzoic acid trifluoroacetate] | active
11 | CCN(CC)CCCNc1nc(-c2cc(C(=O)NC(C)C)cc(F)c2C)c2ccc(=O)n(-c3c(F)cccc3F)c2n1 [179(c), 3-[2-{[3-(diethylamino)propyl]amino}-8-(2,6-difluorophenyl)-7-oxo-7,8-dihydropyrido[2,3-d]pyrimidin-4-yl]-5-fluoro-4-methyl-N-(1-methylethyl)benzamide] | active
12 | CCCNC(=O)c1ccc(-c2nc(NCCCN(CC)CC)nc3c2ccc(=O)n3-c2c(F)cccc2F)cc1 [188(b), 4-[2-{[3-(diethylamino)propyl]amino}-8-(2,6-difluorophenyl)-7-oxo-7,8-dihydropyrido[2,3-d]pyrimidin-4-yl]-N-propylbenzamide] | active
13 | CCN(CC)CCCNc1nc(-c2cccc(C(=O)O)c2)c2ccc(=O)n(-c3c(F)cccc3F)c2n1 [193(a), 3-[2-{[3-(diethylamino)propyl]amino}-8-(2,6-difluorophenyl)-7-oxo-7,8-dihydropyrido[2,3-d]pyrimidin-4-yl]benzoic acid] | active
14 | CCN(CC)CCCNc1nc(-c2cccc(C(=O)NC)c2)c2ccc(=O)n(-c3c(F)cccc3F)c2n1 [193(b), 3-[2-{[3-(diethylamino)propyl]amino}-8-(2,6-difluorophenyl)-7-oxo-7,8-dihydropyrido[2,3-d]pyrimidin-4-yl]-N-methylbenzamide] | active
15 | Cc1ccc(NC(=O)c2cccs2)cc1-c1nc(NC2CC(C)(C)NC(C)(C)C2)nc2c1ccc(=O)n2-c1c(F)cccc1F [Example 9, N-(3-{8-(2,6-difluorophenyl)-7-oxo-2-[(2,2,6,6-tetramethyl-4-piperidinyl)amino]-7,8-dihydropyrido[2,3-d]pyrimidin-4-yl}-4-methylphenyl)-2-thiophenecarboxamide] | active
16 | Cc1ccc(NC(=O)c2cccs2)cc1-c1nc(NCc2ncc[nH]2)nc2c1ccc(=O)n2-c1c(F)cccc1F [Example 10, N-(3-{8-(2,6-difluorophenyl)-2-[(1H-imidazol-2-ylmethyl)amino]-7-oxo-7,8-dihydropyrido[2,3-d]pyrimidin-4-yl}-4-methylphenyl)-2-thiophenecarboxamide] | active
17 | Cc1ccc(NC(=O)c2ccc(Cl)nc2)cc1-c1nc(N2CCC(N)CC2)nc2c1ccc(=O)n2-c1c(F)cccc1F [Example 15, N-{3-[2-(4-amino-1-piperidinyl)-8-(2,6-difluorophenyl)-7-oxo-7,8-dihydropyrido[2,3-d]pyrimidin-4-yl]-4-methylphenyl}-6-chloro-3-pyridinecarboxamide] | active
18 | Cc1ccc(C(=O)NC2CC2)cc1-c1nc(NC(CO)CO)nc2c1ccc(=O)n2-c1c(F)cccc1F [Example 36, N-cyclopropyl-3-(8-(2,6-difluorophenyl)-2-{[2-hydroxy-1-(hydroxymethyl)ethyl]-amino}-7-oxo-7,8-dihydropyrido[2,3-d]pyrimidin-4-yl)-4-methylbenzamide] | active
19 | Cc1ccc(C(=O)NC(C)C)cc1-c1nc(NCc2ncc[nH]2)nc2c1ccc(=O)n2-c1c(F)cccc1F [Example 74, 3-{8-(2,6-difluorophenyl)-2-[(1H-imidazol-2-ylmethyl)amino]-7-oxo-7,8-dihydropyrido[2,3-d]pyrimidin-4-yl}-4-methyl-N-(1-methylethyl)benzamide] | active

— US8207176B2 (Glaxo Group Limited, priority 2005, dated 2012)
